Data published in US20240417410A1, “TRICYCLIC COMPOUNDS FOR THE TREATMENT OF CANCER” (Hoffmann-La Roche Inc., priority 2023, published 2024).

Key:
AGS cells (KRAS G12D) = assay: Cell viability assay (Cell Counting Kit-8, 3-day); assay type: cell-based, human; conditions: Homo sapiens, 72 h, 72 hrs incubation
Summary of the method: (§1)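 IC50 derived by 4-parameter sigmoidal fit of CCK-8 signal (OD450−OD650, 2 h development) after 72 h compound exposure in 0.5% DMSO. Seeding density was 5,000 cells/well for NCI-H358 and 2,000 cells/well for AGS and SW620, plated overnight before dosing.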

SW620 cells (KRAS G12V) = assay: Cell viability assay (Cell Counting Kit-8, 3-day); assay type: cell-based, human; conditions: Homo sapiens, SW-620; SW620, 72 hrs incubation
Summary of the method: as §1

[1] = system: NCI-H358 cells (KRAS G12C); assay: Cell viability assay (Cell Counting Kit-8, 3-day); assay type: cell-based, human; conditions: Homo sapiens, NCI-H358, 72 h, NCI-H358, 72 hrs incubation
Summary of the method: as §1

KRAS G12C-BRAF complex = KRAS G12C-BRAF complex (Homo sapiens (Human), UniProt P01116+P62937, G12C); assay: KRAS-BRAF with CYPA (500 nM) interaction assay (TR-FRET, Example 136); assay type: biochemical; conditions: KRAS G12C-BRAF disruption
Sequence of KRAS G12C-BRAF complex (P01116-2 other isoform, or with tags, fused parts or gaps G12C): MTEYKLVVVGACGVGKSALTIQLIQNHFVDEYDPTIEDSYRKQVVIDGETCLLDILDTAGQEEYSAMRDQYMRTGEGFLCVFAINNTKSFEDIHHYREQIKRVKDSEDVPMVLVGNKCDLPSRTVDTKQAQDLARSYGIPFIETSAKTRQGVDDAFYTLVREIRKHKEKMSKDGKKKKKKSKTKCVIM
Sequence of KRAS G12C-BRAF complex (P62937 whole entry): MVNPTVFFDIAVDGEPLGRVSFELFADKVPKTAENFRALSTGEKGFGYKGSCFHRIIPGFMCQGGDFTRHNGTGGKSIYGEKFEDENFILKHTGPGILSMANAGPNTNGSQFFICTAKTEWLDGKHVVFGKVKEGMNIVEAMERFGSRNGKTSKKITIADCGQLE
Procedure: In this example, TR-FRET was also used to measure the compound or compound-CYPA dependent disruption of the KRAS G12C-BRAF complex. This protocol was also used to measure disruption of KRAS G12D or KRAS G12V binding to BRAF by a compound of the invention, respectively. In assay buffer containing 25 mM HEPES PH=7.4 (4-(2-hydroxyethyl)-1-piperazineethanesulfonic acid, Thermo, 15630080), 0.002% Tween20, 0.1% BSA, 100 mM NaCl, 5 mM MgCl2, 10 μM GMPPNP (Guanosine 5′-[β,γ-imido]triphosphate trisodium salt hydrate, Sigma, G0635), […] 384-well assay plate at final concentrations of 50 nM, 6.25 nM and 1 nM, respectively. Compound was present in plate wells as a 16-point 3-fold dilution series starting at a final concentration of 10 μM and incubated for 3 hours. A mixture of MAb Anti-6His-XL665 (Cisbio, 61HISXLB) and Mab anti-GST-TB cryptate (Cisbio, 61GSTTLB) was then added at a final concentration of 6.67 nM and 0.21 nM, respectively, and the plate was incubated for an additional 1.5 hours. TR-FRET signal was read on a PHERstar FSX microplate reader (Ex320 nm, Em 665/615 nm). Compounds that facilitate disruption of the KRAS-BRAF complex were identified as those eliciting a decrease in the TR-FRET ratio relative to DMSO control wells.

[2] = system: phosphorylation of ERK, KRAS G12C in NCI-H358 cells; assay: pERK inhibition assay; assay type: cell-based; conditions: Homo sapiens, NCI-H358, 4 h
Summary of the method: (§2)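 Phospho-ERK quantified by in-cell ELISA with TMB read-out at OD450 following 4 h compound exposure (final 0.5% DMSO). Cell lines were SW620 (KRAS G12V), AGS (G12D) and NCI-H358 (G12C), grown in RPMI-1640 with 10% FBS. A 4-parameter sigmoidal model gave the IC50.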

[3] = system: phosphorylation of ERK, KRAS G12V in SW620; assay: pERK inhibition assay; assay type: cell-based; conditions: Homo sapiens, SW-620, 4 h, SW620 cells
Summary of the method: as §2

[4] = system: phosphorylation of ERK, KRAS G12D in AGS cells; assay: pERK inhibition assay; assay type: cell-based; conditions: Homo sapiens, AGS, 4 h
Summary of the method: as §2

| Compound | IC50 (AGS cells (KRAS G12D)) | IC50 (SW620 cells (KRAS G12V)) | IC50 [1] | IC50 (KRAS G12C-BRAF complex) | IC50 [2] | IC50 [3] | IC50 [4] |
| --- | --- | --- | --- | --- | --- | --- | --- |
| CO[C@@H](C)c1ncc(N2CCN(CC(F)F)CC2)cc1-c1c2c3cc(cc4c3n1CCC4)-c1csc(n1)C[C@H](NC(=O)[C@H]1[C@H](C)[C@@H]1C)C(=O)N1CCC[C@H](N1)C(=O)OCC(C)(C)C2 (atropisomer, axis not shown) [Example 109, (1r,2R,3S)-N-[(7S,13S)-20-[5-[4-(2,2-difluoroethyl)piperazin-1-yl]-2-[(1S)-1-methoxyethyl]-3-pyridyl]-17,17-dimethyl-8,14-dioxo-15-oxa-4-thia-9,21,30,31-tetrazahexacyclo[23.3.1.1^2,5.1^9,13.0^19,27.0^21,26]hentriaconta-1 (28),2,5 (31), 19,25 (29),26-hexaen-7-yl]-2,3-dimethyl-cyclopropanecarboxamide] | 5.1 nM | 0.6 nM | 2.8 nM | 6 nM | 0.9 nM | 0.3 nM | 4.1 nM |
| CO[C@@H](C)c1ncc(N2CCN(C)CC2)cc1-c1c2c3cc(cc4c3n1CCC4)-c1csc(n1)C[C@H](NC(=O)[C@H]1C[C@@H]1C)C(=O)N1CCC[C@H](N1)C(=O)OCC(C)(C)C2 (atropisomer, axis not shown; (M)) [Example 2, (1S,2S)-N-[(7S,13S)-(20M)-20-[2-[(1S)-1-methoxyethyl]-5-(4-methylpiperazin-1-yl)-3-pyridyl]-17,17-dimethyl-8,14-dioxo-15-oxa-4-thia-9,21,30,31-tetrazahexacyclo[23.3.1.1^2,5.1^9,13.0^19,27.0^21,26]hentriaconta-1 (28),2,5 (31), 19,25 (29),26-hexaen-7-yl]-2-methyl-cyclopropanecarboxamide] | 29.9 nM | 1.2 nM | 10.1 nM | 28.8 nM | 3.4 nM | 1.4 nM | 3 nM |
| CO[C@@H](C)c1ncc(N2CCN(CC(F)(F)F)CC2)cc1-c1c2c3cc(cc4c3n1CCO4)-c1csc(n1)C[C@H](NC(=O)[C@H]1C[C@@H]1C)C(=O)N1CCC[C@H](N1)C(=O)OCC(C)(C)C2 (atropisomer, axis not shown; (M)) [Example 5, (1S,2S)-N-[(7S,13S)-(20M)-20-[2-[(1S)-1-methoxyethyl]-5-[4-(2,2,2-trifluoroethyl)piperazin-1-yl]-3-pyridyl]-17,17-dimethyl-8,14-dioxo-15,24-dioxa-4-thia-9,21,30,31-tetrazahexacyclo[23.3.1.1^2,5.1^9,13.0^19,27.0^21,26]hentriaconta-1 (28),2,5 (31), 19,25 (29),26-hexaen-7-yl]-2-methyl-cyclopropanecarboxamide] | 70 nM | 4.6 nM | 17.3 nM | 34.8 nM | 6.2 nM | 2.8 nM | 21.2 nM |
| CO[C@@H](C)c1ncc(N2CCOCC2)cc1-c1c2c3cc(cc4c3n1CCC4)-c1csc(n1)C[C@H](NC(=O)[C@H]1C[C@@H]1C(F)F)C(=O)N1CCC[C@H](N1)C(=O)OCC(C)(C)C2 (atropisomer, axis not shown; (M)) [Example 6, (1S,2S)-2-(difluoromethyl)-N-[(7S,13S)-(20M)-20-[2-[(1S)-1-methoxyethyl]-5-morpholino-3-pyridyl]-17,17-dimethyl-8,14-dioxo-15-oxa-4-thia-9,21,30,31-tetrazahexacyclo[23.3.1.1^2,5.1^9,13.0^19,27.0^21,26]hentriaconta-1 (28),2,5 (31), 19,25 (29),26-hexaen-7-yl]cyclopropanecarboxamide] | 19.4 nM | 1.6 nM | 3 nM | 11.1 nM | 1.4 nM | 0.8 nM | 5.6 nM |
| CO[C@@H](C)c1ncc(N2CCOCC2)cc1-c1c2c3cc(cc4c3n1CCC4)-c1csc(n1)C[C@H](NC(=O)[C@H]1[C@@H]3COC[C@@H]31)C(=O)N1CCC[C@H](N1)C(=O)OCC(C)(C)C2 (atropisomer, axis not shown; (M)) [Example 7, (1S,5R,6r)-N-[(7S,13S)-(20M)-20-[2-[(1S)-1-methoxyethyl]-5-morpholino-3-pyridyl]-17,17-dimethyl-8,14-dioxo-15-oxa-4-thia-9,21,30,31-tetrazahexacyclo[23.3.1.1^2,5.1^9,13.0^19,27.0^21,26]hentriaconta-1 (28),2,5 (31), 19,25 (29),26-hexaen-7-yl]-3-oxabicyclo[3.1.0]hexane-6-carboxamide] | 13.1 nM | 0.8 nM | 2.4 nM | 9.4 nM | 1.6 nM | 1.2 nM | 7.9 nM |
| CO[C@@H](C)c1ncc(N2CCOCC2)cc1-c1c2c3cc(cc4c3n1CCO4)-c1csc(n1)C[C@H](NC(=O)[C@H]1C[C@@H]1C)C(=O)N1CCC[C@H](N1)C(=O)OCC(C)(C)C2 (atropisomer, axis not shown; (M)) [Example 8, (1S,2S)-N-[(7S,13S)-(20M)-20-[2-[(1S)-1-methoxyethyl]-5-morpholino-3-pyridyl]-17,17-dimethyl-8,14-dioxo-15,24-dioxa-4-thia-9,21,30,31-tetrazahexacyclo[23.3.1.1^2,5.1^9,13.0^19,27.0^21,26]hentriaconta-1 (28),2,5 (31), 19,25 (29),26-hexaen-7-yl]-2-methyl-cyclopropanecarboxamide] | 18.7 nM | 1.1 nM | 5.9 nM | 23.7 nM | 2.6 nM | 1.2 nM | 7.1 nM |
| CO[C@@H](C)c1ncc(N2CCOCC2)cc1-c1c2c3cc(cc4c3n1CCO4)-c1csc(n1)C[C@H](NC(=O)[C@H]1C[C@@H]1C(F)F)C(=O)N1CCC[C@H](N1)C(=O)OCC(C)(C)C2 (atropisomer, axis not shown; (M)) [Example 9, (1S,2S)-2-(difluoromethyl)-N-[(7S,13S)-(20M)-20-[2-[(1S)-1-methoxyethyl]-5-morpholino-3-pyridyl]-17,17-dimethyl-8,14-dioxo-15,24-dioxa-4-thia-9,21,30,31-tetrazahexacyclo[23.3.1.1^2,5.1^9,13.0^19,27.0^21,26]hentriaconta-1 (28),2,5 (31), 19,25 (29),26-hexaen-7-yl]cyclopropanecarboxamide] | 7.6 nM | < 0.6 nM | 2.8 nM | 21.1 nM | 2.3 nM | 0.8 nM | 1.8 nM |
| CO[C@@H](C)c1ncc(N2CCOCC2)cc1-c1c2c3cc(cc4c3n1CCO4)-c1csc(n1)C[C@H](NC(=O)[C@H]1[C@@H]3COC[C@@H]31)C(=O)N1CCC[C@H](N1)C(=O)OCC(C)(C)C2 (atropisomer, axis not shown; (M)) [Example 10, (1S,5R,6r)-N-[(7S,13S)-(20M)-20-[2-[(1S)-1-methoxyethyl]-5-morpholino-3-pyridyl]-17,17-dimethyl-8,14-dioxo-15,24-dioxa-4-thia-9,21,30,31-tetrazahexacyclo[23.3.1.1^2,5.1^9,13.0^19,27.0^21,26]hentriaconta-1 (28),2,5 (31), 19,25 (29),26-hexaen-7-yl]-3-oxabicyclo[3.1.0]hexane-6-carboxamide] | 4.6 nM | < 0.6 nM | 2.2 nM | 5.9 nM | 3.3 nM | 1.2 nM | 1.4 nM |
| CO[C@@H](C)c1ncc(N2CCN(CC(F)(F)F)CC2)cc1-c1c2c3cc(cc4c3n1CCO4)-c1csc(n1)C[C@H](NC(=O)[C@H]1C[C@@H]1C(F)F)C(=O)N1CCC[C@H](N1)C(=O)OCC(C)(C)C2 (atropisomer, axis not shown; (M)) [Example 11, (1S,2S)-2-(difluoromethyl)-N-[(7S,13S)-(20M)-20-[2-[(1S)-1-methoxyethyl]-5-[4-(2,2,2-trifluoroethyl)piperazin-1-yl]-3-pyridyl]-17,17-dimethyl-8,14-dioxo-15,24-dioxa-4-thia-9,21,30,31-tetrazahexacyclo[23.3.1.1^2,5.1^9,13.0^19,27.0^21,26]hentriaconta-1 (28),2,5 (31),19,25 (29),26-hexaen-7-yl]cyclopropanecarboxamide] | 38.4 nM | 2.4 nM | 18.8 nM | 12.4 nM | 5.1 nM | 0.8 nM | 2.9 nM |
